Experimental data taken from patent publication US20230348495A1, “A COMPOUND HAVING INHIBITORY ACTIVITY AGAINST KRAS G12D MUTATION” (TAIHO PHARMACEUTICAL CO., LTD., priority 2019, published 2023).

Legend:
[1] = tested on: KRAS-G12D mutant cell line (A-427); assay: Growth inhibition activity on KRAS-G12D mutant cell line (A-427), CellTiter-Glo 3D; type: cell-based; conditions: Homo sapiens, 72 h, A-427 cells, 3-day culture with compound, read-out: A427 CTX IC50
Description: Test Example 2: A measurement test of growth inhibition activity on KRAS-G12D mutant cell line (A-427) (in vitro) A-427 cells (ATCC, Cat #: HTB-53), which are a KRAS-G12D mutant human lung cancer cell line, were suspended in a 10% fetal bovine serum-containing E-MEM medium (manufactured by Fujifilm Wako Pure Chemical Corporation). The cell suspension was seeded into each well of a 384-well U bottom microplate and cultured in an incubator containing 5% CO2 gas at 37° C. for 1 day.
The compound of the present invention was dissolved in DMSO, and the test compound was diluted with DMSO to give a concentration 500 times the final concentration. The solution of the test compound in DMSO was diluted with the medium used for suspending cells and added to each well of the cell-culture plate to give a DMSO final concentration of 0.2%, followed by culture in an incubator containing 5% CO2 gas at 37° C. for another 3 days. The cell count after a 3-day culture in the presence of the compound was measured using CellTiter-Glo 3D Reagent (manufactured by Promega Corporation).
All wells were added with CellTiter-Glo 3D Reagent and mixed for 10 minutes. 30 minutes after mixing, luminescence was measured by a plate reader. The growth inhibition rate was calculated from the following equation, and the concentration of the test compound at which 50% inhibition was achieved (IC50 (μM)) was determined.
Growth Inhibition Rate(%)=(C−T)/(C)×100
T: the emission intensity in a well into which a test compound was added.
C: the emission intensity in a well into which a test compound was not added.

KRAS G12D = KRAS G12D (Homo sapiens (Human), UniProt P01116, G12D); assay: Inhibitory activity on KRAS G12D nucleotide (GDP-GTP) exchange reaction in vitro (SOS1-dependent, BODIPY FL GDP); type: biochemical; conditions: BODIPY FL GDP-bound KRAS G12D, compound 25° C. 1 hour, then SOS1 and GMPPNP 30 minutes
Text: Test Example 1: Evaluation of inhibitory activity of compounds on KRAS G12D nucleotide (GDP-GTP) exchange reaction in vitro
Recombinant KRAS G12D (conjugated N-terminus His6-tag, TEV protease cleavage site and KRAS G12D residues 1-169 (SEQ ID NO: 1), prepared by the method described as below) and cleaved recombinant SOS1 (residues 564-1049(SEQ ID NO: 2), prepared by the method as below) proteins were expressed in E. coli and purified by affinity chromatography.
To prepare the recombinant KRAS G12D, the codon-optimized DNA sequence for the recombinant KRAS G12D (conjugated N-terminus His6-tag, TEV protease cleavage site and KRAS G12D residues 1-169 (SEQ ID NO: 3))was synthesized by GeneArt Technology (Life Technologies, Carlsbad, CA, US). The construct was subcloned into the expression vector pET28a and transformed into Escherichia coli BL21 (DE3) strains (Novagen, Madison, WI, US).
The transformed strain was cultivated in 2 L Luria Broth medium with 25 μg/mL kanamycin at a temperature of 37° C. to a density of 0.6 (OD600), then induced for expression with […] IPTG and further cultivated for 4 h. The cell pellet was resuspended in ice-cold lysis buffer containing 50 mM Tris-HCl (pH 7.5), 200 mM NaCl, and 100 μM TCEP (tris(2-carboxyethyl)phosphine).
After sonication, the disrupted debris was removed by centrifugation. The supernatant was applied on to Ni-NTA affinity gels, and the recombinant human KRAS (G12D) eluted fraction was collected. The buffer of the collected fraction was exchanged to the buffer containing 50 mM Tris-HCl (pH 7.5), 200 mM NaCl, 10% Glycerol, and 5 mM DTT by PD-10 column (GE-Healthcare, Chicago, IL, US).
To prepare the cleaved recombinant SOS1, the codon optimized DNA sequences for the recombinant SOS1 (residues 564-1049 with a conjugated N-terminus His6-tag and TEV protease cleavage site (SEQ ID NO: 4)) was synthesized by GeneArt Technology (Life Technologies). The construct was subcloned into the expression vector pET28a and transformed into Escherichia coli BL21 (DE3) strains (Novagen, Madison, WI, USA).
The transformed strain was cultivated in 2 L Terrific Broth medium with 25 μg/mL kanamycin at a temperature of 37° C. to a density of 0.8 (OD600), then shifted to a temperature of 16° C., induced for expression with […] IPTG, and further cultivated for 16 h. The cell pellet was resuspended in ice-cold lysis buffer containing 50 mM Tris-HCl (pH 7.5), 200 mM NaCl, and 100 μM TCEP.
After sonication, the disrupted debris was removed by centrifugation. The supernatant was applied on to Ni-NTA affinity gels, and the recombinant human SOS1 eluted fraction was collected. Then, His6-tagged TEV protease was added to the collected fraction, dialyzed with the ice-cold lysis buffer for 16 h at a temperature of 4° C., and applied on to Ni-NTA affinity gels. The flow-through fraction containing the tag-cleavaged recombinant human SOS1 was collected. The buffer of the collected fraction was exchanged to the buffer containing 50 mM Tris-HCl (pH 7.5), 200 mM NaCl, 10% Glycerol, and 5 mM DTT by PD-10 column (GE-Healthcare).
To prepare BODIPY FL (fluorescent dye) GDP-bound KRAS G12D protein, 50 μM KRAS G12D protein was incubated with 0.5 mM BODIPY FL GDP in a loading buffer (20 mM Tris-HCl (pH 7.5), 50 mM NaCl, 1 mM DTT and 2.5 mM EDTA) for 1 hour on ice. After the incubation, MgCl2 was added to a final concentration of 10 mM, followed by incubation at room temperature for 30 minutes.
The mixture was allowed to pass through a NAP-5 column to remove free nucleotides and purified BODIPY FL GDP-bound KRAS G12D protein was used for compound evaluation.
For the measurement of the inhibitory activity of compounds on GDP-GTP exchange rate of recombinant KRAS G12D, BODIPY FL GDP-bound KRAS G12D protein was incubated with various concentrations of compound in a reaction buffer (20 mM Tris-HCl (pH 7.5), 100 mM NaCl, 1 mM MgCl2, 2 mM DTT, 0.1% Tween 20) at 25° C. for 1 hour. […]

Sequence of KRAS G12D (P01116 other isoform, or with tags, fused parts or gaps G12D (already in the parent)): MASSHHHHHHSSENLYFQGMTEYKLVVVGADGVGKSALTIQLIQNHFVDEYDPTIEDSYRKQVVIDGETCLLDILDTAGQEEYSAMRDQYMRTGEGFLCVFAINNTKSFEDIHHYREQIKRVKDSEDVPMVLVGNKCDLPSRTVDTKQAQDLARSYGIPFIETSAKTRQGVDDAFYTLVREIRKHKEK

CN(C)CC1(COc2nc3c(c(N4CC5CCC(C4)N5)n2)CCN(c2cc(O)cc4cccc(Br)c24)C3)CC1(C)C (stereo not shown) [Example 30, 4-(4-(3,8-diazabicyclo[3.2.1]octan-3-yl)-2-((1-((dimethylamino)methyl)-2,2-dimethylcyclopropyl)methoxy)-5,8-dihydropyrido[3,4-d]pyrimidin-7(6H)-yl)-5-bromonaphthalen-2-ol]
IC50 [1]: 1380 nM
IC50 (KRAS G12D): 11.7 nM

CN1CCC[C@H]1COc1nc2c(c(N3CC4CCC(C3)N4)n1)CCN(c1cc(O)cc3cccc(Br)c13)C2 [Example 31, 4-(4-(3,8-diazabicyclo[3.2.1]octan-3-yl)-2-(((S)-1-methylpyrrolidin-2-yl)methoxy)-5,8-dihydropyrido[3,4-d]pyrimidin-7(6H)-yl)-5-bromonaphthalen-2-ol]
IC50 [1]: 1950 nM
IC50 (KRAS G12D): 17.7 nM

CO[C@@H]1C[C@@H](COc2nc3c(c(N4CC5CCC(C4)N5)n2)CCN(c2cc(O)cc4cccc(Br)c24)C3)N(C)C1 [Example 32, 4-(4-(3,8-diazabicyclo[3.2.1]octan-3-yl)-2-(((2S,4R)-4-methoxy-1-methylpyrrolidin-2-yl)methoxy)-5,8-dihydropyrido[3,4-d]pyrimidin-7(6H)-yl)-5-bromonaphthalen-2-ol]
IC50 [1]: 1080 nM
IC50 (KRAS G12D): 3.2 nM

C#Cc1cccc2cc(O)cc(C3Cc4nc(OCC5(CN6CCOCC6)CC5)nc(N5CC6CCC(C5)N6)c4CO3)c12 (stereo not shown) [Example 33, 4-(4-(3,8-diazabicyclo[3.2.1]octan-3-yl)-2-((1-(morpholinomethyl)cyclopropyl)methoxy)-7,8-dihydro-5H-pyrano[4,3-d]pyrimidin-7-yl)-5-ethynylnaphthalen-2-ol]
IC50 [1]: 1270 nM
IC50 (KRAS G12D): 11.3 nM

C=Cc1cccc2cc(O)cc(C(=O)N3Cc4nc(OCC5(CN6CC[C@@H](F)C6)CC5)nc(N5CC6CCC(C5)N6)c4C3)c12 [Example 34, (4-(3,8-diazabicyclo[3.2.1]octan-3-yl)-2-((1-(((R)-3-fluoropyrrolidin-1-yl)methyl)cyclopropyl)methoxy)-5,7-dihydro-6H-pyrrolo[3,4-d]pyrimidin-6-yl) (3-hydroxy-8-vinylnaphthalen-1-yl)methanone]
IC50 [1]: 7140 nM
IC50 (KRAS G12D): 14.1 nM

C=Cc1cccc2cc(O)cc(C(=O)N3Cc4nc(OCC5(CN6CCOCC6)CC5)nc(N5CC6CCC(C5)N6)c4C3)c12 [Example 35, (4-(3,8-diazabicyclo[3.2.1]octan-3-yl)-2-((1-(morpholinomethyl)cyclopropyl)methoxy)-5,7-dihydro-6H-pyrrolo[3,4-d]pyrimidin-6-yl) (3-hydroxy-8-vinylnaphthalen-1-yl) methanone]
IC50 [1]: 8840 nM
IC50 (KRAS G12D): 13.5 nM

C#Cc1cccc2cc(N)nc(N3CCc4c(nc(OCC5(CN(C)C)CC5)nc4N4CC5CCC(C4)N5)C3)c12 [Example 36, 1-(4-(3,8-diazabicyclo[3.2.1]octan-3-yl)-2-((1-((dimethylamino)methyl)cyclopropyl)methoxy)-5,8-dihydropyrido[3,4-d]pyrimidin-7(6H)-yl)-8-ethynylisoquinolin-3-amine]
IC50 [1]: > 10000 nM
IC50 (KRAS G12D): 27.4 nM

CN(C)CC1(COc2nc3c(c(N4CC5CCC(C4)N5)n2)COC(c2cc(O)cc4cccc(Br)c24)C3)CC1 (stereo not shown) [Example 37, 4-(4-(3,8-diazabicyclo[3.2.1]octan-3-yl)-2-((1-((dimethylamino)methyl)cyclopropyl)methoxy)-7,8-dihydro-5H-pyrano[4,3-d]pyrimidin-7-yl)-5-bromonaphthalen-2-ol]
IC50 [1]: 2940 nM
IC50 (KRAS G12D): 9.6 nM
